According to patent publication EP2913333A1 (priority 2014, dated 2015):
Where a name gives a salt, the structure may show the parent alone. Read-outs that look alike come from different tables or passages of the source.

Assays:
[1] = biological target: T1, S. Agalactiae DltA (Streptococcus agalactiae serotype III, UniProt Q8VM67); assay: biochemical
T1 sequence (Q8VM67 1-511): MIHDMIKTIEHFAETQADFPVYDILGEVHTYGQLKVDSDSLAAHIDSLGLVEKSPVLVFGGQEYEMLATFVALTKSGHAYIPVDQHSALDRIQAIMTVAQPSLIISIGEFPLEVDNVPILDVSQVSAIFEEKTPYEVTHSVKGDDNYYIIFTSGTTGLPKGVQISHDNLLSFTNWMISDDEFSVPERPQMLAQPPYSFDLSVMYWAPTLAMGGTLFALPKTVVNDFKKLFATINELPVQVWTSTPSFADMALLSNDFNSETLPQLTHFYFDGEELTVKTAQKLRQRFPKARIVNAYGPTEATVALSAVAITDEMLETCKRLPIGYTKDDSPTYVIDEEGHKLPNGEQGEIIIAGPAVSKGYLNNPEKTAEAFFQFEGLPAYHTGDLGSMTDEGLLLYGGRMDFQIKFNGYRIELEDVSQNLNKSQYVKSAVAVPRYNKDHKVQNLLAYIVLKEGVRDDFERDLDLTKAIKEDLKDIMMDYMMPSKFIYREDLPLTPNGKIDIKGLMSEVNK
Description: (§1) To this end, recombinant proteins DltA were expressed and purified after cloning of the genes of S. aureus, E. faecalis, E. faecium and S. agalactiae as described thereafter. The capacity of the compounds of the invention to inhibit DltA enzymatic activity was assessed using the DltA assays as described below: • The dltA gene was amplified from chromosomal DNA of S. aureus, E. faecalis, E. faecium and S. agalactiae and introduced into E. coli BL21 (Invitrogen, Carlsbad, CA) following manufacturer's instruction. Bacteria were grown at 37°C under aerobic conditions and isopropyl-beta-D-thiogalactopyranoside (IPTG) was added to 0.5-1 mM when OD600 of the bacterial culture had reached 0.5. After a further incubation for 3 hours, cells were harvested by centrifugation. Purification of the recombinant DltA protein was performed by affinity chromatography on nickel-nitrilotriacetic acid (Ni-NTA) column following manufacturer's instructions (Qiagen). Fractions containing recombinant DltA protein were adjusted to 50% glycerol and stored at -20°C until use.
(§2) The binding potency of the inhibitors against DltA enzyme was assessed by IC50 determination in an in vitro DltA activity assay. The assay buffer "AB" contained 50 mM Hepes pH8.0, 10mM MgCl2, 50mM KCI, 0.012% Triton-X100, 10mM DTT and 100nM Myelin-basic protein. The following components were added in a white polystyrene Costar plate up to a final volume of 30µL: 3µL DMSO, or inhibitor dissolved in DMSO and 27µL DltA enzyme in AB. After 30min of preincubation at room temperature, 30µL of Substrates mix in AB were added in each well to a final volume of 60µL. This reaction mixture was then composed of DltA (produced in house from S. aureus, E. faecalis, E. faecium and S. agalactiae), 0.5mM D-Alanine (Sigma), 0.5-5µM ATP (Sigma) and 0.05 u/ml inorganic pyrophosphatase (Sigma) in assay buffer. After typically 1-2hours of incubation at room temperature (conversion rate around 30%), 30µL of the revelation mix were added to a final volume of 90µL, including the following constituents at the respective final concentrations: 10000 u/ml luciferase (Sigma), 30µM D-luciferin (Sigma), 100µM N-acetylcysteamine (Aldrich). Luminescence intensity was immediately measured on a Fluostar Optima (BMG) (excitation 360nm, emission 520nm) and converted into inhibition percentages.
(§3) For compounds interfering with the luminescent signal (quenching), the same experiment without DltA enzyme was performed to allow quenching determination and correction.

[2] = biological target: T2, E. feacalis DltA (Enterococcus faecalis, UniProt Q830N0); assay: biochemical
T2 sequence (Q830N0 1-506): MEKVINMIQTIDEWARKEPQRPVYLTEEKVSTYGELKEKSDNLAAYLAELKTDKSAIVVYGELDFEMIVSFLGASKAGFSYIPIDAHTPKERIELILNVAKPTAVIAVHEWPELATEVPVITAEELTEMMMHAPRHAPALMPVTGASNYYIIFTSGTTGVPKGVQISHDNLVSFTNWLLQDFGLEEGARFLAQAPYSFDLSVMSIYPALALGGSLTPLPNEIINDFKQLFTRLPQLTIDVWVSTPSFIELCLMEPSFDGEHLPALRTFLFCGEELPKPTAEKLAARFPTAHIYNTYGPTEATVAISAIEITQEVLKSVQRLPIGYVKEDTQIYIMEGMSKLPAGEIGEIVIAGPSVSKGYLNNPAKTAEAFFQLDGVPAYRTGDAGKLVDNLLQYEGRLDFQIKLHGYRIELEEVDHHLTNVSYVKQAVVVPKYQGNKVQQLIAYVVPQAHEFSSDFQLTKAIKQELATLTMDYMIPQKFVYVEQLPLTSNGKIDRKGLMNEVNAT
Description: as §1, §2, §3

[3] = biological target: T3, E. feacium DltA (Enterococcus faecium, UniProt Q3XZT7); assay: in vitro DltA activity assay (luminescence, IC50 determination); type: biochemical
T3 sequence (Q3XZT7 1-504): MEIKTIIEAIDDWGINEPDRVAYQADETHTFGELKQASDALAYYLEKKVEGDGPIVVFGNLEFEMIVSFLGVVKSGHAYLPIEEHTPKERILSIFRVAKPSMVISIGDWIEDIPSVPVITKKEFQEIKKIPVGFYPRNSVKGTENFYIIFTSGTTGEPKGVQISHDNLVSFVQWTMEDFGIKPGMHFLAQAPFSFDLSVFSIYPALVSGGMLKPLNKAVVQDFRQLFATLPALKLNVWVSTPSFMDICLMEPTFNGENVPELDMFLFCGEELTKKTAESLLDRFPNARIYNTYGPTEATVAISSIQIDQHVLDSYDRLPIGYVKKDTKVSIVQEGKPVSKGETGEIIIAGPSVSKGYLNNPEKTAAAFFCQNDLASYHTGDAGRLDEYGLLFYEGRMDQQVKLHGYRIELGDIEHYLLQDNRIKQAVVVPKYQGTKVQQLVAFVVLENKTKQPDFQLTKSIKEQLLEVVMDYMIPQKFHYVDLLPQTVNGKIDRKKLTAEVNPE
Description: as §1, with “The effect of the compounds of the invention on DltA enzymes has been based on the measure of their inhibition of DltA activity in vitro. To” for “To”
as §2, §3

[4] = biological target: T4, S. aureus DltA (Staphylococcus aureus, UniProt Q2FZW6); assay: as above; type: biochemical
T4 construct: made in house; host or cells: E. coli BL21
T4 sequence (Q2FZW6 1-485): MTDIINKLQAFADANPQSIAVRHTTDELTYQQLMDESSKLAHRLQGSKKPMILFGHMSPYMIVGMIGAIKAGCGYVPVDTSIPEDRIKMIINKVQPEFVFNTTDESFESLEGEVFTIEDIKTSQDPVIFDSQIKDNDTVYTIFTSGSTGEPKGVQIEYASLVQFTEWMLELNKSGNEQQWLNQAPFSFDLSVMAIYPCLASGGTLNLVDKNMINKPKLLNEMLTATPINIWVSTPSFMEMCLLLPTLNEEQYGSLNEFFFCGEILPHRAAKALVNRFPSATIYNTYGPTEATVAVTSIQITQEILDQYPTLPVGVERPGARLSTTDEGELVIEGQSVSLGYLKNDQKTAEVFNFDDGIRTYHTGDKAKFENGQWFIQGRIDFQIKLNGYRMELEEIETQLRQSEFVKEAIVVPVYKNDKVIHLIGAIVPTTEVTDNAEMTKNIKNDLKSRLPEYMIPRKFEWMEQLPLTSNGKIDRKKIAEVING
Description: as §1, with “The effect of the compounds of the invention on DltA enzymes has been based on the measure of their inhibition of DltA activity in vitro. To” for “To”
as §2, §3

[5] = recombinant DltA, 30min preincubation at room temperature, 0.5mM D-Alanine, 0.5-5µM ATP, read-out: E. feacium DltA IC50

| SMILES | IC50 [1] [nM] | IC50 [2] [nM] | IC50 [3, 5] [nM] | IC50 [4] [nM] | IC50 [3] [nM] |
| --- | --- | --- | --- | --- | --- |
| O=c1[nH]cnc2c(-c3ccc4c(c3)ncn4C3CCCCC3)sc(C3=CCNCC3)c12 [Example 37, 7-(1-cyclohexyl-1H-benzoimidazol-5-yl)-5-(1,2,3,6-tetrahydro-pyridin-4-yl)-3H-thieno[3,4-d]pyrimidin-4-one hydrochloride] | 660 | 25 | 42 | 68 |  |
| CN1CC=C(c2sc(-c3ccc4c(c3)ncn4C3CCCCC3)c3nc[nH]c(=O)c23)CC1 [Example 38, hydrochloride] | 910 | 42 |  | 130 | 130 |
| CCn1cnc2cc(-c3sc(N4CC[C@H](CO)C4)c4c(=O)[nH]cnc34)ccc21 [Example 45, 7-(1-ethyl-1H-benzoimidazol-5-yl)-5-((S)-3-hydroxymethyl-pyrrolidin-1-yl)-3H-thieno[3,4-d]pyrimidin-4-one] | 3400 | 70 | 390 | 130 |  |
| COCCn1cnc2cc(-c3sc(N4CC[C@H](CO)C4)c4c(=O)[nH]cnc34)ccc21 [Example 46, 5-((S)-3-hydroxymethyl-pyrrolidin-1-yl)-7-[1-(2-methoxy-ethyl)-1H-benzoimidazol-5-yl]-3H-thieno[3,4-d]pyrimidin-4-one] | 5100 | 150 | 440 | 150 |  |
| O=c1[nH]cnc2c(-c3ccc4c(c3)ncn4[C@@H]3CCCC[C@H]3F)sc(N3CC[C@H](CO)C3)c12 [Example 47, 7-[1-((1R,2R)-2-fluoro-cyclohexyl)-1H-benzoimidazol-5-yl]-5-((S)-3-hydroxymethyl-pyrrolidin-1-yl)-3H-thieno[3,4-d]pyrimidin-4-one] | 2600 | 46 | 110 | 77 |  |
| O=c1[nH]cnc2c(-c3ccc4c(c3)ncn4C3CCCOC3)sc(N3CC[C@H](CO)C3)c12 (stereo partly drawn) [Example 49, 5-((S)-3-hydroxymethyl-pyrrolidin-1-yl)-7-[1-(tetrahydro-pyran-3-yl)-1-H-benzoimidazol-5-yl]-3H-thieno[3,4-d]pyrimidin-4-one] | 3300 | 82 | 160 | 97 |  |
| O=c1[nH]cnc2c1c(CCCO)cn2-c1ccc2c(c1)ncn2C1CCCCC1 [Example 51, 7-(1-Cyclohexyl-1H-benzoimidazol-5-yl)-5-(3-hydroxy-propyl)-3,7-dihydro-pyrrolo[2,3-d]pyrimidin-4-one] | 4500 | 330 | 1200 | 1100 |  |
| O=c1[nH]cnc2c1c(C1=CCNCC1)cn2-c1ccc2c(c1)ncn2C1CCCCC1 [Example 52, 7-(1-cyclohexyl-1H-benzoimidazol-5-yl)-5-(1,2,3,6-tetrahydro-pyridin-4-yl)-3,7-dihydro-pyrrolo[2,3-d]pyrimidin-4-one hydrochloride] | 350 | 26 | 120 | 150 |  |
| CN1CC=C(c2cn(-c3ccc4c(c3)ncn4C3CCCCC3)c3nc[nH]c(=O)c23)CC1 [Example 53, 7-(1-cyclohexyl-1H-benzoimidazol-5-yl)-5-(1-methyl-1,2,3,6-tetrahydro-pyridin-4-yl)-3,7-dihydro-pyrrolo[2,3-d]pyrimidin-4-one] | 590 | 13 | 94 | 150 |  |
| O=c1[nH]cnc2c1c(C1CCC(CO)C1)cn2-c1ccc2c(c1)ncn2C1CCCCC1 (centres unmarked) [Example 58, 7-(1-Cyclohexyl-1H-benzoimidazol-5-yl)-5-(3-hydroxymethyl-cyclopentyl)-3,7-dihydro-pyrrolo[2,3-d]pyrimidin-4-one] | 6100 | 190 | 480 | 810 |  |
| O=c1[nH]cnn2c(-c3ccc4c(c3)ncn4C3CCCCC3)cc(N3CC[C@H](CO)C3)c12 [Example 63, 7-(1-Cyclohexyl-1H-benzoimidazol-5-yl)-5-((S)-3-hydroxymethyl-pyrrolidin-1-yl)-3H-pyrrolo[2,1-f][1,2,4]triazin-4-one] | 25000 | 350 | 1100 | 460 |  |
